The results in this text go back to ChEMBL document CHEMBL6153083, “Synthesis, Structural Modification, and Antismall Cell Lung Cancer Activity of 3-Arylisoquinolines with Dual Inhibitory Activity on Topoisomerase I and II” (J Med Chem, 2025).

Each structure is given as a SMILES string. Where only a bound is given, the exact number is not on record here.

Data set [1] is described as follows: Antiproliferative activity against human NCI-H196 cells incubated for 72 hrs. Format: functional, cell-based. Particulars: NCI-H196, 72 h.
For a further data set, the system named is NCI-H446. Nature of the data set: Antiproliferative activity against human NCI-H446 cells incubated for 72 hrs. Type of data set: functional, cell-based. Particulars: NCI-H446, 72 h.
A further data set concerns NCI-H209. Put plainly: Antiproliferative activity against human NCI-H209 cells incubated for 72 hrs. Type of data set: functional, cell-based. Conditions: NCI-H209, 72 h.
The next data set has as its system SHP77. Put plainly: Antiproliferative activity against human SHP77 cells incubated for 72 hrs. Type of data set: functional, cell-based. Conditions: SHP77, 72 h.
Data set [2] can be described thus: Antiproliferative activity against human BEAS-2B cells incubated for 72 hrs. Type of data set: toxicity, cell-based.
Data set [3] in a line: Antiproliferative activity against human L02 cells incubated for 72 hrs. Format: toxicity, cell-based.
In the next data set the test system is NCI-H82. Put plainly: Antiproliferative activity against human NCI-H82 cells incubated for 72 hrs. Format: functional, cell-based. Conditions: NCI-H82, 72 h.
Another data set has as its system NCI-H1048. Put plainly: Antiproliferative activity against human NCI-H1048 cells incubated for 72 hrs. Particulars: NCI-H1048, 72 h. Type of data set: functional, cell-based.
In another data set the test system is NCI-H146. Put plainly: Antiproliferative activity against human NCI-H146 cells incubated for 72 hrs. Type of data set: functional, cell-based. Conditions: NCI-H146, 72 h.

On to `CN1CCCN(Cc2cc3c(cc2-c2cc4ccc5c(c4cn2)OCO5)OCO3)CC1`, for which the IC50 is 19.8 µM in [1]; 10.4 µM in the data set with NCI-H446; above 50 µM with NCI-H209; 22.3 µM in the data set on SHP77; 6.49 µM in the data set with NCI-H82; 32.1 µM in the data set with NCI-H1048. For the same molecule, the half-maximal inhibitory concentration (IC50) at 72 h in data set [2] and in data set [3] was above 100 µM each time.

`FC1(F)CCCN(Cc2cc3c(cc2-c2cc4ccc5c(c4cn2)OCO5)OCO3)CC1`: the half-inhibitory concentration (IC50) amounted to 56.4 µM in data set [1]; 39.3 µM in the data set on NCI-H446; 45 µM in the data set with NCI-H209; 31.3 µM in the data set with SHP77; 31.3 µM in the data set on NCI-H82; 19.1 µM with NCI-H1048. Also, the IC50 at 72 h in data set [2] was 24.2 µM; in [3], 36.6 µM.

Regarding `c1c(CN2CC3CCC(C2)O3)c(-c2cc3ccc4c(c3cn2)OCO4)cc2c1OCO2`, the IC50 in [1] was 31.3 µM; in the data set with NCI-H446, 20.6 µM; with NCI-H146, above 100 µM; in the data set on NCI-H209 it was 46.5 µM; in the data set with SHP77, 30.8 µM. Moreover, the figures for the IC50 at 72 h in data set [2] and in [3] were 57.3 µM and above 100 µM, respectively.

`FC1CN(Cc2cc3c(cc2-c2cc4ccc5c(c4cn2)OCO5)OCO3)C1`: the IC50 in data set [1] was above 100 µM; in the data set with NCI-H446 it was 49.8 µM; in the data set with NCI-H209 it was above 100 µM; in the data set with SHP77 it was 44.9 µM; with NCI-H82, above 100 µM; in the data set with NCI-H1048, 74.1 µM. Besides, the IC50 at 72 h in data set [2] came out at 75.6 µM; in [3] it was 59 µM.

Turning to `CC(C)C1CCCCCN1Cc1cc2c(cc1-c1cc3ccc4c(c3cn1)OCO4)OCO2` (centres undefined), the IC50 in data set [1] was found to be 17.9 µM; in the data set on NCI-H446, 1.22 µM; in the data set with NCI-H209 it was 18.1 µM; in the data set on SHP77, 8.23 µM; in the data set with NCI-H82 it was 1.72 µM; in the data set on NCI-H1048, 18.1 µM. Besides, the results for the IC50 at 72 h in data set [2] and in data set [3] were 26.5 µM and 20.5 µM, respectively.

Regarding `c1c(CN2CCCCCC2)c(-c2cc3ccc4c(c3cn2)OCO4)cc2c1OCO2`, the IC50 in data set [1] was found to be 24.3 µM; with NCI-H446 it was 15.2 µM; in the data set on NCI-H209 it was 39.5 µM; in the data set with SHP77 it was 18 µM; with NCI-H82, 16.9 µM; in the data set with NCI-H1048, 15.4 µM. For the same molecule, the IC50 at 72 h in data set [2] stood at 12.3 µM; in data set [3], 14.4 µM.

With `COc1ccc2cc3[n+](cc2c1OC)CCc1cc2c(cc1-3)OCO2` [BERBERINE], the IC50 was above 100 µM in data set [1]; 78.6 µM in the data set on NCI-H446; above 100 µM in the data set on NCI-H146; 65 µM in the data set with NCI-H209; above 100 µM in the data set with SHP77; above 100 µM in the data set on NCI-H1048. For the same molecule, the IC50 at 72 h in data set [2] and in data set [3] was above 100 µM each time.

On to `CC1(F)CN(Cc2cc3c(cc2-c2cc4ccc5c(c4cn2)OCO5)OCO3)C1`, for which the IC50 in data set [1] is above 100 µM; in the data set on NCI-H446, 38.5 µM; in the data set with NCI-H209, above 100 µM; in the data set on SHP77, above 100 µM; in the data set with NCI-H82 it was above 100 µM; with NCI-H1048, above 100 µM. The IC50 at 72 h in data set [2] and in [3] was above 100 µM in each case.

For `CC1CCN1Cc1cc2c(cc1-c1cc3ccc4c(c3cn1)OCO4)OCO2` (centres undefined), the IC50 in [1] is 46.3 µM; in the data set with NCI-H446, 48.8 µM; in the data set on NCI-H209, 48.8 µM; with SHP77, 42.6 µM; in the data set on NCI-H82, 56.2 µM; with NCI-H1048, 42.3 µM. For the same molecule, the IC50 at 72 h in [2] was 27.7 µM; in data set [3], 33.8 µM.

In the case of `FC1CCCN(Cc2cc3c(cc2-c2cc4ccc5c(c4cn2)OCO5)OCO3)CC1` (centres undefined), the half-inhibitory concentration (IC50) turned out to be 35.7 µM in data set [1]; 20.6 µM with NCI-H446; 58.3 µM in the data set on NCI-H209; 42.4 µM with SHP77; 37.8 µM in the data set on NCI-H82; 17.7 µM in the data set with NCI-H1048. Also, the IC50 at 72 h in [2] was 33.7 µM; in data set [3], above 100 µM.

As usually defined, the IC50 is the concentration that inhibits the measured activity by half.
